In paper PMC11590367, “Characterization of novel small molecule inhibitors of estrogen receptor-activation function 2 (ER-AF2)” (Breast Cancer Research : BCR, 2024):
Each block holds one molecule with its values, some of them ahead of it.

Key:
[1] = tested on: ER transcriptional activity in T47D-KBluc cells; experiment: Luciferase transcriptional assay; assay type: cell-based; settings: ER transcription, luciferase reporter, 1 nM E2, 24 h treatment, ± SD of 3 biological replicates
Experimental: T47D-KBluc cells or PC3m-luc cells were starved for 72 h and then seeded into 96-well plates at 20,000 or 5,000 cells/well, respectively. […] One day post-treatment, the media was removed, and cells were lysed with 65 µl of 1x passive lysis buffer (Promega #E1910). Following two freeze-thaw cycles, 20 µl of lysate were transferred to a white, 96-well flat bottom plate (Corning Life Sciences Cat#3912). 50 µl of luciferase reagent (Promega. Luciferase Assay System E1500) was added to each well, and luminescence was measured using the TECAN M200 Pro plate reader. E2 (1 nM), 4-hydroxytamoxifen (OHT) (4 nM), and DMSO (0.2%) were used as controls for this assay. […] E2 alone represented 100% transcriptional activation, while the 0.2% DMSO control represented 0% transcriptional activity. OHT was used as a positive control for an active compound.

T47D cells = experiment: PrestoBlue viability assay, T47D; assay type: cell-based; settings: 1 nM E2, 72 h treatment, ± SD of 3 biological replicates
Experimental: (§1) T47D, MCF7, TamR3, and MDA-MB-231 cells were starved for 72 h and then seeded into black clear-bottom 96-well plates (Corning Life Sciences Cat#3904) at 20,000 cells/well (T47D, MCF7, TamR3) or 5,000 cells/well (MDA-MB-231). […] 20 µl of PrestoBlue Cell Viability Reagent (Thermo Fisher A13262) was added to each well and incubated at 37 °C for 1 h. Fluorescence intensity was measured using the TECAN F500 plate reader with emission and excitation wavelengths of […], respectively.

MCF7 cells = experiment: PrestoBlue viability assay, MCF7; assay type: cell-based; settings: Homo sapiens, 1 nM E2, 72 h treatment, ± SD of 3 biological replicates
Experimental: as §1

TamR3 cells = experiment: PrestoBlue viability assay, TamR3; assay type: cell-based; settings: 1 nM E2, 72 h treatment, ± SD of 3 biological replicates
Experimental: as §1

MDA-MB-231 cells = experiment: PrestoBlue viability assay, MDA-MB-231; assay type: cell-based; settings: dose response 50 to 0.01 µM, 1 nM E2
Experimental: as §1

[2] = Precipitation in MST assay buffer; assay type: physicochemical; settings: 2% DMSO, 0.03 to 1000 µM
Experimental: MST was used to validate the direct binding and measure the binding affinities between the lead compounds and the recombinant ER-LBD. ER-LBD was labeled with red fluorescent dye using a Protein Labeling Kit RED-NHS 2nd Generation (Nanotemper MO-L011) according to the manufacturer’s protocol. The compounds were serially diluted 1:2 in 100% DMSO from 50 to 0.0015 mM, then added to 10 nM of labeled ER protein in the assay buffer (25 mM Tris, pH 8.4, 150 mM NaCl, 20 µM E2, 0.1 mM PMSF, 0.05% Tween20) at final concentrations of 0.03 to 1000 µM. Recombinant proteins in cell free assays are not affected by DMSO concentrations up to 10%. A final concentration of 2% DMSO was chosen for MST as the compounds required this concentration to be soluble in the assay buffer. […] The corresponding data points were removed from the analysis. […] Each protein/compound mixture was then loaded into Monolith Premium Capillaries (Nanotemper MO-K025). All assays were conducted with medium MST power and 20% excitation power. Data analysis and Kd estimation were performed with the MO Affinity Analysis software from Nanotemper.

[3] = molecular target: T1, recombinant ER-LBD (residues 298–554) (Homo sapiens, UniProt P03372); experiment: Microscale thermophoresis (MST) direct binding; settings: averaged from three independent assays, 20 µM E2 in buffer, read-out: Kd (binding affinity to ER-LBD)
T1 construct: The ER-LBD (residues 298–554) was cloned into pET28a bacterial expression plasmid; His-tag (N); made in house; host or cells: E. coli BL21-DE3 (with pRARE)
Experimental: The ER-LBD (residues 298–554) was cloned into pET28a bacterial expression plasmid with an N-terminal His-tag. pET28a-His-ER and pRARE were transformed into E. coli (BL21-DE3). Bacteria were grown at 37 [drawing 1] C overnight, and then diluted 1:20 the following day in LB media and grown at 37 [drawing 2] C until the OD600 reached 0.5. Protein expression was induced with 1 mM IPTG, and 50 µM E2 was added to the media. Cells were then grown for 5 h at 25 °C. Bacterial pellets were collected by centrifugation at 13,000 rpm for 7 min. Pellets were resuspended in lysis buffer (25 mM Tris, pH 8.4, 150 mM NaCl, 20 µM E2, 1 mM DTT, 0.1 mM PMSF, cOmplete protease inhibitor (Roche)) then sonicated and centrifuged to obtain the soluble extracts. ER-LBD was purified using affinity chromatography with Ni-NTA agarose resin. The presence of the ER-LBD in eluted fractions was confirmed by SDS-PAGE and validated by mass spectrometry. The eluted protein was further purified by size exclusion chromatography (s75), and fractions containing the ER-LBD protein were pooled and concentrated using Amicon Ultra centrifugal filters (3 K MWCO).
MST was used to validate the direct binding and measure the binding affinities between the lead compounds and the recombinant ER-LBD. […]

[4] = molecular target: T2, ER-LBD AF2 site / PGC1a coactivator peptide (Homo sapiens, UniProt P03372); experiment: TR-FRET coactivator peptide displacement (LanthaScreen ER alpha Coactivator Assay); assay type: binding; settings: 4 nM E2, 4 h
T2 construct: The assay utilizes GST-tagged ER-LBD (final concentration, 7.3 nM); purchased Thermo Fisher A15885
Experimental: We performed a TR-FRET assay to assess whether compounds displace the AF2 peptide from the ER-AF2 pocket using the LanthaScreen TR-FRET ER alpha Coactivator Assay Kit (Thermo Fisher, A15885). The assay utilizes GST-tagged ER-LBD (final concentration, 7.3 nM), terbium-labeled GST-antibody (final concentration, 5 nM), and a fluorescein-coactivator peptide, PGC1a (final concentration, 250 nM) in the presence of 4 nM E2. The GST-antibody, ER protein and fluorescent peptide mixture was incubated with four concentrations of compound (500 µM, 167 µM, 56 µM, 18.5 µM) for 4 h. The sample was excited at 340 nm and read at 520 nm on a Syngergy Neo2 plate reader (BioTek).

[5] = molecular target: T3, full length ERɑ protein, estrogen binding site (EBS) (Homo sapiens, UniProt P03372); experiment: E2-displacement assay (PolarScreen fluorescence polarization); settings: fluorescence polarization, 1, 10 and 50 µM
T3 construct: full length ERɑ protein was incubated with Fluormone ES2 Green; purchased ThermoFisher A15882
Experimental: The E2 displacement assay was performed using the PolarScreen Estrogen Receptor Alpha Competitor Assay, Green (ThermoFisher A15882) according to the manufacturer’s protocol. In brief, full length ERɑ protein was incubated with Fluormone ES2 Green (Fluormone Tracer) in the ES2 screening buffer in a black bottom 384-well plate (Corning 3573) in the presence of either 1, 10, or 50 µM of test compounds. The final concentrations in the assay were 2% DMSO (consistent with the MST assay), 4.5 nM fluormone, and 40 nM ERɑ protein. 20 µl of the mixture were added to each well, with triplicates performed for each condition. The plate was incubated in the dark at room temperature for 4 h before fluorescence polarization was measured using a Synergy Neo2 plate reader (BioTek).

[6] = tested on: ER target genes (cyclinD1, CDC2, E2F, PR, pS2) in TamR3 cells; experiment: Real-time PCR of ER target genes, TamR3; assay type: cell-based; settings: 1 µM Tamoxifen
Experimental: Total RNA was extracted using TRIzol, 72 h post-treatment. cDNA synthesis was conducted using the Maxima First Strand cDNA Synthesis Kit for RT-qPCR (Thermo K1641) according to the manufacturer’s protocol. RT-PCR was conducted on the QuantStudio 7 Pro instrument and expression fold change was calculated using 2−ΔΔCt method normalized to 18s.

ER D538G/F404L mutant = ER D538G/F404L mutant (Homo sapiens, UniProt P03372, D538G/F404L); experiment: Transcriptional activity of fulvestrant resistant mutant ER; assay type: cell-based; settings: compared to DMSO
[7] = design: method as in earlier work; settings: cited from earlier work
[8] = design: method as in earlier work; settings: cited from earlier work; remark: listed apart in the source
[9] = molecular target: T4, ER-LBD (residues 298–554), recombinant, N-terminal His-tag (UniProt P03372 298-554, red fluorescent dye (Protein Labeling Kit RED-NHS 2nd Generation)); experiment: MST; 10 nM RED-NHS labelled ER-LBD, ligand titrated; 25 mM Tris pH 8.4, 150 mM NaCl, 20 µM E2, 0.1 mM PMSF, 0.05% Tween20; medium MST power, 20% excitation power; Kd averaged from three independent assays; settings: both partners purified
T4 construct: Kept with 20 µM E2 in lysis and assay buffers; also called recombinant ER-LBD; source: E. coli (BL21-DE3) with pRARE, purified (Ni-NTA, size exclusion s75), 50 µM E2 added during expression
T4 sequence (looked up): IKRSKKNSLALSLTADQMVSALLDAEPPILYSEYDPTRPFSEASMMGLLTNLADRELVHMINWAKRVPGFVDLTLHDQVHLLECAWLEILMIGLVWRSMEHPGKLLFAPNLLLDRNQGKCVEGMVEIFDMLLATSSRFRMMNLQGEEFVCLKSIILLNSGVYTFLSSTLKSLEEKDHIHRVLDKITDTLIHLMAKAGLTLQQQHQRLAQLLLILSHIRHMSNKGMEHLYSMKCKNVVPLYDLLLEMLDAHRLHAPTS

Chain of ER D538G/F404L mutant (P03372 whole entry F404L/D538G): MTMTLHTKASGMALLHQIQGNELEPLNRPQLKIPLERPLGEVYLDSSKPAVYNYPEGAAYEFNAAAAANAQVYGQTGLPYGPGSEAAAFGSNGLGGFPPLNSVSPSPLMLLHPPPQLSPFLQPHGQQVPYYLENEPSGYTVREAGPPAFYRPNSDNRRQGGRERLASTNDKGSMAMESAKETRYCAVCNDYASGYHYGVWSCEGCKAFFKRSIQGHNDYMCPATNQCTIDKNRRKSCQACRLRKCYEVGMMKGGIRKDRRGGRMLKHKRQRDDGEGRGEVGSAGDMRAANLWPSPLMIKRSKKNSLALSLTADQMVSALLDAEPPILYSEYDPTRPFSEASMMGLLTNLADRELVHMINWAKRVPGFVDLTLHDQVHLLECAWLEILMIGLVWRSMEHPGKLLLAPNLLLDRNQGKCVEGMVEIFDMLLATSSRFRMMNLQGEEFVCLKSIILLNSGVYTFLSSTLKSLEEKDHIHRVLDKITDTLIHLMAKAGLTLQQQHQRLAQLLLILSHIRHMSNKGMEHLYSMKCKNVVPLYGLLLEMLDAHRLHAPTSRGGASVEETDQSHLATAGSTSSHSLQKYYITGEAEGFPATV
T3 sequence (P03372 whole entry): as the sequence (P03372 whole entry F404L/D538G) above, with L404F, G538D counted along it

Molecule: Cc1cccn2c(CNCc3cccc(NC(=O)[C@@H]4CCCO4)c3)cnc12 [VPC-260962]
- IC50 ([1]; 24 h): 10.8 µM
- IC50 [1]: 10.8 ± 2.92 µM
- IC50 (T47D cells): 8.92 ± 2.81 µM
- IC50 (T47D cells; Homo sapiens, T47D, 72 h): 8.9 µM
- IC50 (MCF7 cells): 16.4 ± 3.59 µM
- IC50 (TamR3 cells): 27.8 ± 7.99 µM
- Effect on viability of ER-negative MDA-MB-231 cells (MDA-MB-231 cells): minimal impact

Molecule: Cc1cccn2c(CNCc3ccc(F)cc3F)cnc12 [VPC-260711]
- IC50 ([1]; 24 h): 6.4 µM
- IC50 [1]: 6.36 ± 0.59 µM
- IC50 (T47D cells; Homo sapiens, T47D, 72 h): 5.4 ± 1.23 µM
- IC50 (MCF7 cells): 18 ± 1.3 µM
- IC50 (TamR3 cells): 16.8 ± 2.07 µM
- Effect on viability of ER-negative MDA-MB-231 cells (MDA-MB-231 cells): minimal impact
- Precipitation after addition of ER protein [2]: exhibited precipitation at 1000 and 500 µM

Molecule: Cc1cccn2c(CNCc3cccc(NC(=O)[C@H]4CCCO4)c3)cnc12 [VPC-260963]
- IC50 ([1]; 24 h): 11.9 ± 3.62 µM
- IC50 (T47D cells; Homo sapiens, T47D, 72 h): 19 ± 5.66 µM
- IC50 (MCF7 cells): 21.1 ± 4.67 µM
- IC50 (TamR3 cells): 16.2 ± 3.38 µM

Molecule: Cc1cccc(Oc2ccc(NC(=O)N3CCC(c4nnc[nH]4)C3)cn2)c1C (stereo not drawn) [VPC-260955]
- IC50 ([1]; 24 h): 17.4 ± 1.12 µM
- IC50 (T47D cells; Homo sapiens, T47D, 72 h): 18.6 ± 1.13 µM
- IC50 (TamR3 cells): 28.7 ± 1.3 µM
- Precipitation after addition of ER protein [2]: exhibited precipitation at 1000 and 500 µM

Molecule: Cc1cccc(Oc2ccc(NC(=O)N[C@H]3C[C@H](CO)C3)cn2)c1C [VPC-260927]
- IC50 ([1]; 24 h): 10.8 ± 3.85 µM
- IC50 (T47D cells; Homo sapiens, T47D, 72 h): 13.8 ± 4.23 µM
- IC50 (MCF7 cells): 19.5 ± 2.16 µM
- IC50 (TamR3 cells): 24.4 ± 2.48 µM
- Kd [3]: 13.2 ± 10.5 µM
- Concentration at which a reduction of the FRET signal (PGC1⍺ peptide displacement) was observed [4]: 500 µM
- Displacement of fluormone (fluorescent E2) from EBS [5]: displaces the fluormone at 1, 10 and 50 µM

Molecule: CCNC(=O)c1cccc(CNCc2cnc3c(C)cccn23)c1 [VPC-260709]
- IC50 ([1]; 24 h): 13.8 ± 2.92 µM
- IC50 (T47D cells; Homo sapiens, T47D, 72 h): 6.37 ± 3.3 µM
- Precipitation after addition of ER protein [2]: exhibited precipitation at 1000 and 500 µM

Molecule: CC1CC(NC(=O)Nc2ccc(Oc3cccc(F)c3F)nc2)C(=O)N1c1cnn(C)c1 (stereo not drawn) [VPC-260950]
- IC50 ([1]; 24 h): 12.4 ± 4.57 µM
- IC50 (T47D cells; Homo sapiens, T47D, 72 h): 16 ± 6.53 µM
- IC50 (TamR3 cells): 21.4 ± 3.66 µM

Molecule: CC/C(=C(\c1ccccc1)c1ccc(OCCN(C)C)cc1)c1ccccc1 [Tamoxifen, tamoxifen, reference compound]
- ER target gene expression in TamR3, tamoxifen alone [6]: increased target gene expression

Molecule: Cc1cccn2c(CNCc3cccc(Br)c3)cnc12 [VPC-260726]
- IC50 ([1]; 24 h): 17.9 ± 3.51 µM
- IC50 (T47D cells; Homo sapiens, T47D, 72 h): 11.2 ± 5.67 µM
- IC50 (MCF7 cells): 16.6 ± 1.47 µM
- IC50 (TamR3 cells): 13.9 ± 1.84 µM

Molecule: O=C(Nc1cccc(CNCc2cnc3ccccn23)c1)C1CCCO1 (stereo not drawn) [VPC-260961]
- IC50 ([1]; 24 h): 7.26 ± 0.73 µM
- IC50 (MCF7 cells): 18.7 ± 1.18 µM
- IC50 (TamR3 cells): 18.7 ± 1.15 µM

Molecule: O=C(NCc1ccc2occc2c1)Nc1ccc(OCC2CCCO2)cc1 (stereo not drawn) [VPC-260936]
- IC50 ([1]; 24 h): 27.2 ± 6.44 µM
- IC50 (T47D cells; Homo sapiens, T47D, 72 h): 10.6 ± 4.27 µM
- IC50 (TamR3 cells): 21.8 ± 6.51 µM
- Precipitation after addition of ER protein [2]: exhibited precipitation at 1000 and 500 µM

- Transcriptional activity of mutant ER D538G/F404L (ER D538G/F404L mutant): increased the transcriptional activity
Molecule: C[C@]12CC[C@@H]3c4ccc(O)cc4C[C@@H](CCCCCCCCC[S+]([O-])CCCC(F)(F)C(F)(F)F)[C@H]3[C@@H]1CC[C@@H]2O (stereo partly drawn) [fulvestrant]
- Solubility [7]: poor solubility
- Oral bioavailability [8]: not orally bioavailable

- Kd [9]: 16.6 ± 2.4 µM
Molecule: EAEEPSLLKKLLLAPANTQ [coactivator peptide PGC1α (control peptide of the MST assay)]
